These results are taken from ChEMBL document CHEMBL5725801, “Fused heterocyclic compounds as CaM kinase inhibitors” (2018).

Molecules are shown by their SMILES. pEC50: −log10 of the molar value.

The assay in a line: CaMKII Cell-Based Activity: CaMKII activity in neonatal rat ventricular myocytes (NRVM) was measured by monitoring the phosphorylation level of phospholamban using high-content imaging. NRVMs were plated in a clear bottom 384-well plate in medium supplemented with 10% fetal bovine serum (FBS) and incubated at 37° C., 5% CO2 overnight. The medium was changed to a serum-free medium and compounds were dosed to the cells. The cells were incubated at 37° C., 5% CO2 for 4 hours and were then treated with 100 nM ATX-II (Alomone Labs) to activate CaMKII. 10 minutes after the addition of ATX-II, the cells were fixed with 4% formaldehyde followed by permeabilization with 0.1% triton X100. The fixed cells were stained with an anti-phospho-phospholamban primary antibody (Santa Cruz Biotechnology) and an Alexa488-labeled anti-rabbit IgG secondary antibody (Life Technologies Corporation) as well as Hoechst 33342 (Life Technologies Corporation). The cells were imaged using an ArrayScan VTI (Cellomics) and analyzed for cells containing a positive fluorescent signal at 485 nm, reported as % responder. The % responders were plotted against the compound concentration to determine the compounds EC50.
For `CCc1cc(C(=O)NC[C@H](C)N(CC)CC)cc(-c2cnn3ccc(-c4cccs4)nc23)n1`, the negative-log EC50 (pEC50) (commonly the negative decadic logarithm of the EC50, by convention in mol/L) was 7.22.
The same measure for `CCN(CC)[C@@H](C)CNC(=O)c1cc(-c2cnn3ccc(-c4cccs4)nc23)nc(N(C)C)c1`: 7.39; for `CCN[C@@H](C)CNC(=O)c1cc(Cl)nc(-c2cnn3ccc(-c4ccccc4)nc23)c1`: 7.86.
The same measure for `CC(C)C(N)CNC(=O)c1ccnc(-c2cnn3ccc(-c4ccccc4)nc23)c1` (stereo not given): 7.36; for `NC[C@H]1CCCN1C(=O)c1ccnc(-c2cnn3ccc(-c4cccs4)nc23)c1`: 7.23; for `CC(C)NC(CNC(=O)c1ccnc(-c2cnn3ccc(-c4ccccc4)nc23)c1)C(C)C` (stereo not given): 6.82.
On to `O=C(c1ccnc(-c2cnn3ccc(-c4ccccc4)nc23)c1)N1CCCCC12CCCNC2` (stereo not given), for which the pEC50 is 7.34.
The figure for `C[C@@H](CNC(=O)c1ccnc(-c2cnn3ccc(-c4ccccc4)nc23)c1)NCc1ncccn1` is 6.11; for `O=C(c1ccnc(-c2cnn3ccc(-c4ccccc4)nc23)c1)N1CCC2CCNCC21` (stereo not given) it is 7.18.
Compound `N[C@H]1CCC[C@@H]1NC(=O)c1ccnc(-c2cnn3ccc(-c4ccccc4)nc23)c1` gave a pEC50 of 6.54.
The figure for `CN(C)CCNC(=O)c1ccnc(-c2cnn3ccc(-c4ccccc4)nc23)c1` is 6.49; for `CCN(CC)[C@@H](CO)CNC(=O)c1ccnc(-c2cnn3ccc(-c4ccccc4)nc23)c1` it is 7.21; for `CC[C@@]1(CNC(=O)c2ccnc(-c3cnn4ccc(-c5ccccc5)nc34)c2)CCCN1` it is 6.55.
The figure for `CCN(CC)[C@@H](C)CNC(=O)c1cc(Cl)nc(-c2cnn3ccc(-c4cccs4)nc23)c1` is 7.16; for `CC[C@]1(CNC(=O)c2ccnc(-c3cnn4ccc(-c5ccccc5)nc34)c2)CCCN1` it is 6.84.
The figure for `CCN(CC)[C@@H](C)CNC(=O)c1cc(N)nc(-c2cnn3ccc(-c4ccccc4)nc23)c1` is 7.60.
For `O=C(c1ccnc(-c2cnn3ccc(-c4cccs4)nc23)c1)N1C2CCNCC1CC2` (stereo not given), the negative logarithm of the EC50 (pEC50) is 6.73.
The figure for `CN(C)c1cc(C(=O)N2CCCC[C@@H]2CN)cc(-c2cnn3ccc(-c4ccccc4)nc23)n1` is 7.27; for `CCCC(N)CNC(=O)c1ccnc(-c2cnn3ccc(-c4ccccc4)nc23)c1` (stereo not given) it is 7.93.
On to `CC(CN)NC(=O)c1ccnc(-c2cnn3ccc(-c4ccccc4)nc23)c1` (stereo not given), for which the pEC50 is 6.76. This pEC50 is 1.17 log units lower than that of the compound before.
The same measure for `CCN(CC)C(CNC(=O)c1ccnc(-c2cnn3ccc(-c4ccccc4)nc23)c1)C(C)C` (stereo not given): 7.43; for `NC[C@H]1CCCCN1C(=O)c1cc(-c2cnn3ccc(-c4ccccc4)nc23)nc(C2CC2)c1`: 7.53.
Turning to `CCN[C@@H](C)CNC(=O)c1cc(-c2cnn3ccc(-c4ccccc4)nc23)nc(C2CC2)c1`, the pEC50 is 7.82.
The same measure for `CCC(N)CNC(=O)c1ccnc(-c2cnn3ccc(-c4ccccc4)nc23)c1` (stereo not given): 7.09; for `NC[C@H]1CC(F)(F)CN1C(=O)c1ccnc(-c2cnn3ccc(-c4cccs4)nc23)c1`: 6.50; for `O=C(c1ccnc(-c2cnn3ccc(-c4cccs4)nc23)c1)N1CCC[C@@H]2CCNC[C@@H]21`: 7.09.
The same measure for `CCN[C@@H](C)CNC(=O)c1cc(CC)nc(-c2cnn3ccc(-c4ccccc4)nc23)c1`: 6.77; for `NC[C@@H]1CCCCN1C(=O)c1cc(Cl)nc(-c2cnn3ccc(-c4cccs4)nc23)c1`: 6.61; for `O=C(c1ccnc(-c2cnn3ccc(-c4cccs4)nc23)c1)N1CC2CCC(C1)NC2` (stereo not given): 7.02.
The same measure for `Nc1cc(C(=O)N2C3CCNCC2CC3)cc(-c2cnn3ccc(-c4ccccc4)nc23)n1` (stereo not given): 6.22; for `CCCC(CNC(=O)c1ccnc(-c2cnn3ccc(-c4ccccc4)nc23)c1)N(CC)CC` (stereo not given): 7.51; for `N[C@H]1CCCN(C(=O)c2ccnc(-c3cnn4ccc(-c5cccs5)nc34)c2)C1`: 6.66.
The compound `CCN(CC)[C@@H](C)CNC(=O)c1cc(-c2cnn3ccc(-c4cccs4)nc23)nc(C(C)C)c1` showed a negative logarithm of the EC50 (pEC50) of 7.09.
The figure for `CCC(C)N[C@@H](C)CNC(=O)c1ccnc(-c2cnn3ccc(-c4ccccc4)nc23)c1` (stereo not given in full) is 7.60; for `CC1(C)CNC1CNC(=O)c1ccnc(-c2cnn3ccc(-c4ccccc4)nc23)c1` (stereo not given) it is 6.78; for `CC(C)C(CNC(=O)c1ccnc(-c2cnn3ccc(-c4ccccc4)nc23)c1)NCC1CC1` (stereo not given) it is 7.05.
Take `NC[C@H]1CCCCN1C(=O)c1cc(Cl)nc(-c2cnn3ccc(-c4cccs4)nc23)c1`: the negative-log EC50 (pEC50) is 7.63.
The same measure for `O=C(c1ccnc(-c2cnn3ccc(-c4ccccc4)nc23)c1)N1CCCC[C@@H]1[C@@H]1CCCN1`: 8.17; for `O=C(c1ccnc(-c2cnn3ccc(-c4ccccc4)nc23)c1)N1CCC2CNCC21` (stereo not given): 7.31.
`NC[C@H]1CCCCN1C(=O)c1cc(-c2cnn3ccc(-c4ccccc4)nc23)nc(C(F)(F)F)c1`: the pEC50 was 7.19.
The same measure for `O=C(c1ccnc(-c2cnn3ccc(-c4ccccc4)nc23)c1)N1C2CCCC1CNCC2` (stereo not given): 7.29.
The same measure for `CCCNC(CC)CNC(=O)c1ccnc(-c2cnn3ccc(-c4ccccc4)nc23)c1` (stereo not given): 8.09; for `CCN[C@H](CNC(=O)c1ccnc(-c2cnn3ccc(-c4ccccc4)nc23)c1)COc1ncccn1`: 7.34; for `Nc1cc(C(=O)N2C3CCNCC2CC3)cc(-c2cnn3ccc(-c4cccs4)nc23)n1` (stereo not given): 6.95.
The figure for `CCC(CNC(=O)c1ccnc(-c2cnn3ccc(-c4ccccc4)nc23)c1)NCC1CC1` (stereo not given) is 7.12; for `CCN[C@@H](CO)CNC(=O)c1ccnc(-c2cnn3ccc(-c4ccccc4)nc23)c1` it is 6.61; for `CCNC(C)(C)CNC(=O)c1ccnc(-c2cnn3ccc(-c4ccccc4)nc23)c1` it is 7.17.
Compound `O=C(c1ccnc(-c2cnn3ccc(-c4ccccc4)nc23)c1)N1CCCC12CCCNC2` (stereo not given) showed a negative logarithm of the EC50 (pEC50) of 8.09.
The same measure for `CCN(CCN)C(=O)c1ccnc(-c2cnn3ccc(-c4ccccc4)nc23)c1`: 6.77; for `O=C(c1ccnc(-c2cnn3ccc(-c4cccs4)nc23)c1)N1CC2CCC[C@@H](C1)NC2`: 7.27.
The compound `N[C@@H](CO)CNC(=O)c1ccnc(-c2cnn3ccc(-c4ccccc4)nc23)c1` showed a negative logarithm of the EC50 (pEC50) of 6.48.
The figure for `CN(C)c1cc(C(=O)N2CC[C@H](N)C2)cc(-c2cnn3ccc(-c4ccccc4)nc23)n1` is 6.08; for `N[C@H]1CCN(C(=O)c2ccnc(-c3cnn4ccc(-c5cccs5)nc34)c2)C1` it is 6.76.
The figure for `C[C@@H]1CNCCN1C(=O)c1ccnc(-c2cnn3ccc(-c4cccs4)nc23)c1` is 6.68.
The same measure for `CCN[C@@H](C)CNC(=O)c1cc(-c2cnn3ccc(-c4ccccc4)nc23)nc(C(C)C)c1`: 7.71; for `CC(C)(N)CNC(=O)c1ccnc(-c2cnn3ccc(-c4ccccc4)nc23)c1`: 6.96.
`N[C@@H]1CCC[C@H]2CCCN(C(=O)c3ccnc(-c4cnn5ccc(-c6ccccc6)nc45)c3)[C@H]21` gave a negative logarithm of the EC50 (pEC50) of 7.14.
The figure for `COc1cc(C(=O)N2CC[C@H](N)C2)cc(-c2cnn3ccc(-c4cccs4)nc23)n1` is 6.84; for `CCN[C@@H](C)CNC(=O)c1cc(N)nc(-c2cnn3ccc(-c4ccccc4)nc23)c1` it is 6.95; for `CCN[C@@H](C)CNC(=O)c1ccnc(-c2cnn3ccc(-c4ccccc4)nc23)c1` it is 7.25.
The same measure for `N[C@H]1C[C@@H]2CCC[C@H]1N2C(=O)c1ccnc(-c2cnn3ccc(-c4ccccc4)nc23)c1`: 7.13.
The same measure for `Cc1cc(C(=O)N2CCCC[C@@H]2CN)cc(-c2cnn3ccc(-c4ccccc4)nc23)n1`: 7.28; for `O=C(NCC1CCCCN1)c1ccnc(-c2cnn3ccc(-c4ccccc4)nc23)c1` (stereo not given): 6.02.
On to `CCN[C@H](C)CNC(=O)c1ccnc(-c2cnn3ccc(-c4ccccc4)nc23)c1`, for which the negative logarithm of the EC50 (pEC50) was 7.14.
In turn, `O=C(c1ccnc(-c2cnn3ccc(-c4cccs4)nc23)c1)N1CC2CNC(COC2)C1` (stereo not given) gave a pEC50 of 6.59. This pEC50 lies 0.55 log units lower than the previous one.
The figure for `CCN(CC)[C@@H](C)CNC(=O)c1cc(N)nc(-c2cnn3ccc(-c4cccs4)nc23)c1` is 7.98; for `CCN(CC)[C@H](CNC(=O)c1ccnc(-c2cnn3ccc(-c4ccccc4)nc23)c1)COc1ncccn1` it is 7.33.
The figure for `CCN[C@@H](C)CNC(=O)c1cc(C)nc(-c2cnn3ccc(-c4ccccc4)nc23)c1` is 6.55; for `C[C@H](N)[C@@H]1CCCCN1C(=O)c1ccnc(-c2cnn3ccc(-c4ccccc4)nc23)c1` it is 7.34.
The same measure for `CCNC(CC)CNC(=O)c1ccnc(-c2cnn3ccc(-c4ccccc4)nc23)c1` (stereo not given): 7.33; for `CN(C)c1cc(C(=O)N2CCCC[C@@H]2CN)cc(-c2cnn3ccc(-c4cccs4)nc23)n1`: 7.31; for `N[C@@H]1CCC[C@H]1NC(=O)c1ccnc(-c2cnn3ccc(-c4ccccc4)nc23)c1`: 6.59.
Compound `CCN(CC)[C@@H](C)CNC(=O)c1cc(-c2cnn3ccc(-c4cccs4)nc23)nc(C(F)(F)F)c1` had a pEC50 of 6.99.
The same measure for `CCNC(CNC(=O)c1ccnc(-c2cnn3ccc(-c4ccccc4)nc23)c1)C(C)C` (stereo not given): 6.97; for `N[C@H]1CCN(C(=O)c2ccnc(-c3cnn4ccc(-c5ccccc5)nc34)c2)C1`: 6.70.
The same measure for `COc1cc(C(=O)N2CC[C@H](N)C2)cc(-c2cnn3ccc(-c4ccccc4)nc23)n1`: 6.33; for `NC[C@H]1CCCCN1C(=O)c1cc(Cl)nc(-c2cnn3ccc(-c4ccccc4)nc23)c1`: 7.47.
The figure for `CN(C)c1cc(C(=O)N2CC[C@H](N)C2)cc(-c2cnn3ccc(-c4cccs4)nc23)n1` is 6.67; for `N[C@@H]1CCC[C@@H]1NC(=O)c1ccnc(-c2cnn3ccc(-c4ccccc4)nc23)c1` it is 6.52.
Turning to `CCCNC(CNC(=O)c1ccnc(-c2cnn3ccc(-c4ccccc4)nc23)c1)C(C)C` (stereo not given), the negative-log EC50 (pEC50) was 7.37.
